Reference: ChEMBL document CHEMBL6114933, “Discovery of 3-acyl-2-anilino-1,4-dihydroquinolin-4-one derivatives as potential inhibitors of methicillin-resistant Staphylococcus aureus” (Bioorg Med Chem Lett, 2025)
≈ marks a conversion by molar mass, not a printed value.

Columns and labels:
Staphylococcus aureus [1] = test: Antibacterial activity against drug-sensitive Staphylococcus aureus ATCC25923 assessed as inhibition of bacterial growth; assay type: functional
[2] = Cytotoxicity against human HepG2 cells; assay type: toxicity, cell-based
Staphylococcus aureus [3] = test: Antibacterial activity against drug-resistant Staphylococcus aureus USA300 JE2 assessed as inhibition of bacterial growth; assay type: functional
Staphylococcus aureus [4] = test: Ex vivo antibacterial activity against methicillin-resistant Staphylococcus aureus assessed as inhibition of bacterial growth by cell infection model; assay type: functional
[5] = Half life in rat at 2 mg/kg, iv; assay type: ADME, organism-based; conditions: in vivo
[6] = Cytotoxicity against HFL1 cells; assay type: toxicity, cell-based; conditions: human
[7] = Metabolic stability in mouse liver microsomes parent compound remaining measured after 30 mins; assay type: ADME, Microsome; conditions: read-out: Stability
[8] = Metabolic stability in rat liver microsomes assessed as parent compound remaining measured after 30 mins; assay type: ADME, Microsome; conditions: read-out: Stability
[9] = Oral bioavailability in rat at 5 mg/kg; assay type: ADME, organism-based; conditions: in vivo
[10] = Cytotoxicity against mouse L929 cells; assay type: toxicity, cell-based
[11] = Cytotoxicity against mouse NIH3T3 cells; assay type: toxicity, cell-based
[12] = Metabolic stability in human liver microsomes assessed as parent compound remaining measured after 30 mins; assay type: ADME, Microsome; conditions: read-out: Stability
[13] = AUC (0 to infinity) in rat at 2 mg/kg, iv; assay type: ADME, organism-based; conditions: in vivo
[14] = Cmax in rat at 5 mg/kg, po or 2 mg/kg, iv; assay type: ADME, organism-based; conditions: in vivo
[15] = biological target: Voltage-gated inwardly rectifying potassium channel KCNH2 (Homo sapiens, UniProt Q12809); test: Inhibition of hERG by binding assay; assay type: toxicity
Chain of Voltage-gated inwardly rectifying potassium channel KCNH2 (Q12809 whole entry): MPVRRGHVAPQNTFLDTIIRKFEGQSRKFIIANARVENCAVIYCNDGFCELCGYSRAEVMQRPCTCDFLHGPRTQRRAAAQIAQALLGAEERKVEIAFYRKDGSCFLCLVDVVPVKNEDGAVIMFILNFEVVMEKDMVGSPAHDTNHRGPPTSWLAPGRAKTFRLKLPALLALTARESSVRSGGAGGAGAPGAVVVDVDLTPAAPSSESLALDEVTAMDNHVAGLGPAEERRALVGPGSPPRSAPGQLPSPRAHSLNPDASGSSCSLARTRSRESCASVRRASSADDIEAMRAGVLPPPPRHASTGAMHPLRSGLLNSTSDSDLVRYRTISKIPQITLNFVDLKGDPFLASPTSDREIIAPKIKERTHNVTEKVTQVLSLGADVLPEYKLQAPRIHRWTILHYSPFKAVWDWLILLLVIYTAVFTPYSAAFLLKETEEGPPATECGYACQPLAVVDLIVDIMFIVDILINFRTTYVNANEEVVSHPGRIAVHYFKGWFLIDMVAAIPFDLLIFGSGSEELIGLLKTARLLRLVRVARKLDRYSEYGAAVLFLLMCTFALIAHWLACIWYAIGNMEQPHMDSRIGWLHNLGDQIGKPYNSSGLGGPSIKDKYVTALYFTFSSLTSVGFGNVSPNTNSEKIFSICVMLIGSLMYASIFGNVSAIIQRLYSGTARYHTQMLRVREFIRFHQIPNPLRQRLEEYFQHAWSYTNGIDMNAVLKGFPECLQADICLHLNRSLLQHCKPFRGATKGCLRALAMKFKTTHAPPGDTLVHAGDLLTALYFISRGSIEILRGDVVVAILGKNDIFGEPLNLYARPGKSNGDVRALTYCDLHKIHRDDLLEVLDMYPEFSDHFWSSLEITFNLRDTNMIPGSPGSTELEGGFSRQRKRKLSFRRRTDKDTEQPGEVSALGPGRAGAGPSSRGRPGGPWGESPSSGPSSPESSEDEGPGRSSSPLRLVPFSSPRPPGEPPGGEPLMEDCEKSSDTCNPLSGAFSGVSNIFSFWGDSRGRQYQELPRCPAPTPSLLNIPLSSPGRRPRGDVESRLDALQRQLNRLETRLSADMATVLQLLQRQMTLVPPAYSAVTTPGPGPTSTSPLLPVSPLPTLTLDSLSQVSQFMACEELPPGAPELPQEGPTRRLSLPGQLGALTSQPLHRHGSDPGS

[16] = AUC(0 to 24 hrs) in rat at 2 mg/kg, iv; assay type: ADME, organism-based; conditions: in vivo
[17] = Cytotoxicity against CHO-K1 cells; assay type: toxicity, cell-based, Cricetulus griseus; conditions: Chinese hamster
[18] = Clearance in rat at 2 mg/kg, iv; assay type: ADME, organism-based; conditions: in vivo
[19] = Cytotoxicity against African green monkey Vero cells; assay type: toxicity, cell-based, Chlorocebus sabaeus

SMILES | MIC50 (Staphylococcus aureus [1]) [µM] | MIC50 (Staphylococcus aureus [3]) [µM] | MIC50 (Staphylococcus aureus [4]) [µM] | also measured
CC(C)C(=O)c1c(Nc2ccc(F)c(F)c2F)[nH]c2c(Cl)cc(Cl)c(Cl)c2c1=O | 0.04 (≈ 0.0185 µg/mL) | 0.05 (≈ 0.0232 µg/mL) | 0.57 (≈ 0.264 µg/mL) | IC50 [2]: 31.2 µM
CN[C@H](CC(C)C)C(=O)N[C@H]1C(=O)N[C@@H](CC(N)=O)C(=O)N[C@H]2C(=O)N[C@H]3C(=O)N[C@H](C(=O)N[C@H](C(=O)O)c4cc(O)cc(O)c4-c4cc3ccc4O)[C@H](O)c3ccc(c(Cl)c3)Oc3cc2cc(c3O[C@@H]2O[C@H](CO)[C@@H](O)[C@H](O)[C@H]2O[C@H]2C[C@](C)(N)[C@H](O)[C@H](C)O2)Oc2ccc(cc2Cl)[C@H]1O [VANCOMYCIN] | 1.97 (≈ 2.86 µg/mL) |  |  | 
CC(=O)c1c(Nc2ccc(Cl)cc2Cl)[nH]c2c(Cl)cc(Cl)c(Cl)c2c1=O | 0.28 (≈ 0.126 µg/mL) | 0.27 (≈ 0.122 µg/mL) | 34.8 (≈ 15.7 µg/mL) | 
CC(=O)c1c(N2CCOCC2)[nH]c2c(F)cc(F)cc2c1=O | > 20 | > 20 |  | 
CC(C)C(=O)c1c(Nc2ccc(F)cc2F)[nH]c2c(F)cc(F)cc2c1=O | 1.36 (≈ 0.515 µg/mL) | 1.27 (≈ 0.48 µg/mL) | 10 (≈ 3.79 µg/mL) | 
CC(=O)c1c(Nc2ccc(Cl)cc2Cl)[nH]c2c(Cl)ccc(C(F)(F)F)c2c1=O | 0.44 (≈ 0.198 µg/mL) | 0.41 (≈ 0.184 µg/mL) | 15.2 (≈ 6.83 µg/mL) | 
CC(C)C(=O)c1c(Nc2ccc(F)cc2F)[nH]c2c(Cl)cc(Cl)c(Cl)c2c1=O | 0.05 (≈ 0.0223 µg/mL) | 0.06 (≈ 0.0267 µg/mL) | 3.9 (≈ 1.74 µg/mL) | half-life [5]: 25.6 h; IC50 [6]: 10.6 µM; remaining at 0.5 h [7]: 68.1%; IC50 [2]: > 256 µM; remaining at 0.5 h [8]: 81.9%; bioavailability [9]: > 99.9%; IC50 [10]: > 100 µM; IC50 [11]: 67.5 µM; remaining at 0.5 h [12]: 95.6%; AUC [13]: 175.71 uM.hr/ml; Cmax [14]: 5.91 uM/ml; IC50 [15]: 60 µM; AUC [16]: 31.97 uM.hr/ml; IC50 [17]: 4.9 µM; clearance [18]: 0.5 mL/min/kg; IC50 [19]: 61.3 µM
CC(=O)c1c(NCc2ccc(F)cc2F)[nH]c2c(F)cc(F)cc2c1=O | > 20 | > 20 |  | 
CC(=O)c1c(Nc2ccc(F)c(F)c2F)[nH]c2c(F)cc(F)cc2c1=O | 1.11 (≈ 0.409 µg/mL) | 0.95 (≈ 0.35 µg/mL) | 6.79 (≈ 2.5 µg/mL) | 
CC[C@H]1OC(=O)[C@H](C)[C@@H](O[C@H]2C[C@@](C)(OC)[C@@H](O)[C@H](C)O2)[C@H](C)[C@@H](O[C@@H]2O[C@H](C)C[C@H](N(C)C)[C@H]2O)[C@](C)(O)C[C@@H](C)C(=O)[C@H](C)[C@@H](O)[C@]1(C)O [ERYTHROMYCIN] | 0.74 (≈ 0.543 µg/mL) |  |  | 
CC(C)C(=O)c1c(Nc2ccc(Cl)cc2Cl)[nH]c2c(F)cc(F)cc2c1=O | 0.2 (≈ 0.0822 µg/mL) | 0.19 (≈ 0.0781 µg/mL) | 1.45 (≈ 0.596 µg/mL) | IC50 [2]: 39 µM
COc1ccc(CNc2[nH]c3c(F)cc(F)cc3c(=O)c2C(C)=O)cc1 | > 20 | > 20 |  | 
CC(=O)c1c(N2CCCCC2)[nH]c2c(F)cc(F)cc2c1=O | > 20 | > 20 |  | 
CC(=O)c1c(Nc2ccc(F)cc2F)[nH]c2c(F)cc(F)cc2c1=O | 4.41 (≈ 1.54 µg/mL) | 3.84 (≈ 1.35 µg/mL) | 9.48 (≈ 3.32 µg/mL) | 
CCN(CC)CCCC(C)Nc1[nH]c2c(F)cc(F)cc2c(=O)c1C(C)=O (centres undefined) | > 20 | > 20 |  | 
CC(=O)c1c(Nc2ccc(Cl)cc2Cl)[nH]c2c(F)cc(F)cc2c1=O | 0.41 (≈ 0.157 µg/mL) | 0.39 (≈ 0.149 µg/mL) | 10.1 (≈ 3.88 µg/mL) | 
COc1ccc(Nc2[nH]c3c(F)cc(F)cc3c(=O)c2C(C)=O)cc1 | > 20 | > 20 |  | 
CC(=O)c1c(NCc2ccc(F)cc2)[nH]c2c(F)cc(F)cc2c1=O | > 20 | > 20 |  | 
CC(C)C(=O)c1c(Nc2ccc(F)c(F)c2F)[nH]c2c(F)cc(F)cc2c1=O | 0.18 (≈ 0.0713 µg/mL) | 0.2 (≈ 0.0793 µg/mL) | 0.71 (≈ 0.281 µg/mL) | IC50 [2]: 63.7 µM; bioavailability [9]: > 55.8%; AUC [13]: 28.9 uM.hr/ml; Cmax [14]: 2.32 uM/ml; IC50 [15]: > 100 µM; AUC [16]: 28.3 uM.hr/ml; CL ([18]; iv, 2 mg/kg): 1.2 mL/min/kg; IC50 [19]: 86.1 µM
CC(=O)c1c(Nc2cc(F)cc(F)c2)[nH]c2c(F)cc(F)cc2c1=O | > 20 | > 20 |  | 
